Test results: article PMC4466525, “Design, Synthesis and Structure-Activity Relationship Studies of Novel Survivin Inhibitors with Potent Anti-Proliferative Properties” (PLoS ONE, 2015)
In brackets after ≈: the same amount, converted by molar mass. Read-outs that look alike come from different tables or passages of the source.

Assays:
CYP3A = assay: Cytochrome P450 inhibition, CYP3A; format: in vitro ADME; details: human liver microsomes 0.1 mg/mL
Method: (§1) All these experiments were performed by a contract research service company, Eurofins Panlabs Inc. (Study Number 100017964). Aqueous solubility (μM) was determined using the shake-flask method by comparing the peak area of the principal peak in a calibration standard (200 μM) containing organic solvent (methanol/water, 60/40, v/v) with the peak area of the corresponding peak in a buffer sample. Metabolic stability study was carried out by incubating compound 4g with human liver microsomes. Metabolic stability which is expressed as percent of the parent compound remaining, was calculated by comparing the peak area of the compound at the time point relative to that at time-0. The half-life (T1/2) was estimated from the slope of the initial linear range of the logarithmic curve of compound remaining (%) vs. time. In the cytochrome P450 inhibition study, human liver microsomes (0.1 mg/mL) were incubated with different substrates and compound 4g for 10 minutes. After the incubation, peak areas corresponding to the metabolite of each substrate were recorded. The percent of control activity was then calculated by comparing the peak area obtained in the presence of compound 4g to that obtained in the absence of compound 4g. Subsequently, the percent inhibition was calculated by subtracting the percent control activity from 100.

XIAP, cIAP1 or cIAP2 = assay: DARTS assay, other IAPs; format: binding, human; details: 20 μM, pronase-digested A375 or M14 cell lysates
Method: Drug affinity responsive target stability (DARTS) assay was performed to identify the protein targets of UC-112 analogs in A375 or M14 cell lysates following the protocols described in the literature. Briefly, A375 or M14 lysates were prepared in non-denaturing M-PER lysis buffer (Thermo Fisher Scientific, Waltham, MA) with protease and phosphatase inhibitors. Then TNC (Tris, NaCl, CaCl2) buffer was added into cell lysates before the total protein concentration of lysate being determined by BCA protein assay kit (Thermo Fisher Scientific, Waltham, MA). The lysates were split into two groups: one group was added with compound of interest solution, the other group was added with same amount of vehicle (DMSO). The samples were mixed thoroughly and incubated at room temperature for 1 h. Then 10 mg/mL pronase stock solution was added into both compound treated or vehicle control groups to achieve the final dilution of 1:100, 1:300, 1:1000 and 1:3000. One aliquot of each group was kept as un-digested control. The proteolysis was performed at room temperature for 30 min before ice cold protease inhibitor stock being added into the mixture. Then SDS loading buffer was added into all the samples and heated to 70°C for 10 min. Finally, the results were analyzed by SDS-PAGE and immunoblotting.

[1] = system: other IAPs (XIAP, cIAP1, cIAP2, livin); assay: Western blotting of other IAP levels; format: cell-based, human; details: 24 h, A375 and PC-3 cells
Method: (§2) Lysates of A375 cells treated by the compound solution for 24 h were used to determine the change of IAP protein levels through western blotting. Primary rabbit antibodies against survivin, XIAP, cIAP1, cIAP2, livin and GAPDH were purchased from Cell Signaling Technology, Inc. (Danvers, MA) and used according to manufacture instructions as reported previously. Protein lane intensities were quantified by ImageJ software (US National Institutes of Health, Bethesda, MD).

M14/LCC6MDR1 = assay: Cell viability (MTS) anti-proliferative assay, multidrug-resistant M14/LCC6MDR1; format: cell-based, human
Method: The anti-proliferative effect of UC-112 and its analogs were tested in human melanoma (A375, M14 and M14/LCC6MDR1) and human prostate cancer (PC-3) cell lines. All the cell lines were purchased from ATCC (American Type Culture Collection, Manassas, VA). The cancer cells were cultured using the supplemented cell culture medium as described before at 37°C in a humidified atmosphere containing 5% CO2. 5000 cells in logarithm growing phase were seeded overnight into each well of a 96-well plate. Then the cells were continuously incubated with sequential diluted compound solution (10 nM to 100 μM, 100 μl per well) in cell culture medium.

caspase 3/7 = assay: Caspase 3/7 functional assay (Caspase-Glo 3/7); format: cell-based, human; details: 1 μM, 24 h, A375 or PC-3 cells, N = 3
Method: The caspase 3/7 activity of cancer cells treated by DMSO control or compound of interest was analyzed using Glo Caspase-Glo 3/7 kit from Promega Corporation (Madison, WI) as per manufacturer’s instructions in similar protocol as described before. The readings of relative luminescence unit were normalized by the cell viability read from the same well determined by compatible CytoTox-Fluor Cytotoxicity assay kit (Promega, WI).

[2] = system: human melanoma A375 xenograft; assay: In vivo anti-tumor efficacy, A375 xenograft; parameters: species or system nude mouse
Excerpt: 3 × 10^6 A375 cells were implanted into the left-side dorsal flank of each nude mouse (n = 5) to establish the human melanoma A375 tumor xenograft model as described previously. Compound 4g were first dissolved in DMSO then diluted by 2% methylcellulose PBS buffer. The proportion of DMSO in final solution was kept at lower than 5%. Mice body weight and the size of tumor were closely monitored during the 3 week continuous treatment (i.p. injection, one dose per day, five days per week). At the end point of the treatment, mice were sacrificed after anesthesia. A375 tumor tissues were isolated then freshly lysed on ice to check the targeted protein levels through Western blotting.
A375 tumor tissues collected from the in vivo efficacy study in the above were fixed in formalin phosphate buffer for one week. Then the tissues were processed to get paraffin embedded sections. TUNEL assay was performed using DeadEnd Fluorometric kit (Promega Corporation, Madison, WI) following manufacturer’s instructions. By the end of the experiment, VECTASHIELD Hard Set mounting medium with DAPI (Vector Lab, Inc., Burlingame, CA) was used to mount the tumor slides and stain the nuclei. The final slides were analyzed immediately under a fluorescence microscope (EVOS FL Cell Imaging System, Thermo Fisher Scientific Inc., NY).

survivin = molecular target: T1, survivin (Homo sapiens, UniProt O15392); assay: Western blotting of survivin level, A375 cells; format: cell-based
T1 construct: endogenous in cells; host or cells: A375 cells
T1 sequence (O15392 whole entry): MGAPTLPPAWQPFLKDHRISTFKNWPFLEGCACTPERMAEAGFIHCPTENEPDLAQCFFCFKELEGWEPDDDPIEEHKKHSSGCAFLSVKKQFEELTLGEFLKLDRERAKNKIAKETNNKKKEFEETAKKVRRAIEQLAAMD
Method: as §2

CYP2C9 = molecular target: T2, CYP2C9 (Homo sapiens, UniProt P11712); assay: Cytochrome P450 inhibition, CYP2C9; format: in vitro ADME; details: probe diclofenac, substrate diclofenac, human liver microsomes 0.1 mg/mL, read-out: % inhibition of control values, CYP2C9
T2 construct: tissue Eurofins Panlabs Inc. (contract research service) Study Number 100017964; host or cells: human liver microsomes
T2 sequence (P11712 whole entry): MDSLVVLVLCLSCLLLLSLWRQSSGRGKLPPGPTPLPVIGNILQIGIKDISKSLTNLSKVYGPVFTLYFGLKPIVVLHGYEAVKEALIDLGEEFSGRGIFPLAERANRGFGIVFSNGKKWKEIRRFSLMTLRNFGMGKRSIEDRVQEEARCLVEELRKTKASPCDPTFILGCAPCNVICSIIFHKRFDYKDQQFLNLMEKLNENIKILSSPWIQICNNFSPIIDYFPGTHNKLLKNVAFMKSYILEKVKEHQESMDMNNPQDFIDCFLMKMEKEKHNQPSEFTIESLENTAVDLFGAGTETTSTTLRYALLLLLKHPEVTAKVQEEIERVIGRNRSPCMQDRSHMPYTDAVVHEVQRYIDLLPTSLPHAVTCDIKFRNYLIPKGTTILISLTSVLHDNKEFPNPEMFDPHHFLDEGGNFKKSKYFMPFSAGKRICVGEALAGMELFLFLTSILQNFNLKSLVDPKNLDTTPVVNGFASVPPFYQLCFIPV
Method: as §1

[3] = Aqueous solubility, shake-flask method; format: physicochemical; details: PBS buffer, thermodynamic from solid, PBS pH 7.4, test concentration 200 μM
Method: as §1

CC(C)c1ccc(COCc2cc(CN3CCCC3)c(O)c3ncccc23)cc1 [4g, 5-(((4-isopropylbenzyl)oxy)methyl)-7-(pyrrolidin-1-ylmethyl)quinolin-8-ol]
inhibition at 10 min (CYP3A; probe midazolam, substrate midazolam, read-out: % inhibition of control values, CYP3A (midazolam)): 3%
inhibition at 10 min (CYP3A; probe testosterone, substrate testosterone, read-out: % inhibition of control values, CYP3A (testosterone)): 29%
Effect on protease susceptibility of other IAPs (DARTS) (XIAP, cIAP1 or cIAP2): negligible effects
Effect on levels of other IAPs [1]: minimally affected
IC50 (M14/LCC6MDR1; Homo sapiens, 48 h, multidrug-resistant M14/LCC6MDR1 melanoma, 48 h treatment, MTS, n = 4, read-out: IC50 values ± SEM, M14/LCC6MDR1): 1800 ± 400 nM
Resistance Index (M14/LCC6MDR1; IC50 on M14/LCC6MDR1 divided by IC50 on parental M14): 2.3
Caspase 3/7 activation relative to DMSO control group (caspase 3/7): up to 4 folds
Tumor growth slower than vehicle control group, 20 mg/kg ([2]; 20 mg/kg i.p., three weeks, A375 xenograft): 53%
Tumor growth slower than vehicle control group, 40 mg/kg ([2]; 40 mg/kg i.p., three weeks, A375 xenograft): 79%
TUNEL assay of tumor tissues ([2]; 40 mg/kg, formalin-fixed tumor sections): widely-spread cell apoptosis
Expression levels of survivin and XIAP protein in tumor tissues ([2]; Western blotting of A375 xenograft tumor tissues from treated groups): decreased
Mice body weight ([2]; three weeks i.p. treatment): without causing obvious decrease of mice body weight
Reduction of survivin level, A375 (survivin; 300 nM, 24 h, A375 cells, lane density by ImageJ): over 50%
IC50 values for survivin inhibition (survivin; estimated from western blotting, A375 and PC-3 cells): low nanomolar range
Effect on survivin level, A375 (survivin; gradient increasing dose, 24 h, A375 cells): dose-dependently suppressed survivin level
inhibition at 10 min (CYP2C9): 17%
solubility [3]: 149 µM (≈ 58.1 µg/mL)
